Experiment: Inhibition of SMARCA2/SMARCC1/SMARCC2/SMARCB1 (unknown origin) using ATP/nucleosome mix as substrate preincubated for 30 mins followed by substrate addition and measured after 180 mins by ADP-Glo assay
Parameters: species or system Homo sapiens

| SMILES | IC50 [nM] |
| --- | --- |
| Cc1ccc(NC(=O)Cc2cc3cc(-c4cccc(N5C[C@@H](C)O[C@@H](C)C5)n4)ccc3cn2)cc1S(C)(=O)=O | 0.48 |
| C[C@@H]1CN(c2cccc(-c3ccc4cnc(CC(=O)Nc5cccc(S(=O)(=O)C(F)F)c5)cc4n3)n2)C[C@H](C)O1 | 0.45 |
| C[C@@H]1CN(c2cccc(-c3ccc4cnc(CC(=O)N[C@@H]5C[C@H](C)N(S(=O)(=O)C(F)F)C5)cc4c3)n2)C[C@H](C)O1 | 0.33 |
| C[C@@H]1CN(c2cccc(-c3ccc4cnc(CC(=O)N[C@@H]5CN(S(=O)(=O)C(F)F)CC(F)(F)C5)cc4n3)n2)C[C@H](C)O1 | 0.43 |
| C[C@@H]1CN(c2cccc(-c3ccc4cnc(CC(=O)N[C@@H]5CCN(S(=O)(=O)C(F)F)C5)cc4c3)n2)C[C@H](C)O1 | 0.53 |
| C[C@@H]1CN(c2cccc(-c3ccc4cnc(CC(=O)N[C@@H]5C[C@@H](F)CN(S(=O)(=O)C(F)F)C5)cc4n3)n2)C[C@H](C)O1 | 0.5 |

Reference: ChEMBL document CHEMBL6103673, “Novel 1,6-Naphthridine Compounds as SMARCA2 Inhibitors for Treating Non-small Cell Lung Cancer” (ACS Med Chem Lett, 2025)
